Values of other authors, collected in patent US8426044B2, “Method for imparting antimicrobial activity to a medical device” (Board of Regents, The University of Texas System, priority 2009, dated 2013).

Key:
[1] = for solubility in organic solvents: organic solvents incl. alcohols, ketones, ethers, aldehydes, acetonitrile, acetic acid, methylene chloride, chloroform
[2] = test system: Pseudomonas aeruginosa cells embedded in a biofilm; details: MBC for the identical strain grown in liquid suspension

## [H]/N=C(\N/C(=N/[H])NCCCCCCNC(=N)NC(=N)Nc1ccc(Cl)cc1)Nc1ccc(Cl)cc1 [Chlorhexidine]
[1]
  solubility in organic solvents: soluble in both water and organic solutions
  solubility in water: soluble in both water and organic solutions

## CO[C@H]1/C=C/O[C@@]2(C)Oc3c(C)c(O)c4c(O)c(c(/C=N/N5CCN(C)CC5)c(O)c4c3C2=O)NC(=O)/C(C)=C\C=C\[C@H](C)[C@H](O)[C@@H](C)[C@@H](O)[C@@H](C)[C@H](OC(C)=O)[C@@H]1C [Rifampin]
[1]
  solubility in organic solvents: freely soluble in acidic aqueous solutions and organic solutions
  solubility in water: very slightly soluble in water

## NC[C@H]1O[C@H](O[C@H]2[C@H](O)[C@@H](O[C@H]3O[C@H](CO)[C@@H](O)[C@H](N)[C@H]3O)[C@H](N)C[C@@H]2N)[C@H](N)C[C@@H]1O [tobramycin]
[2]
  antibiotic level unable to kill biofilm-embedded cells: greater than 50 times the minimum bactericidal concentration (MBC)
